From US20250241948A1, “Engineered Extracellular Vesicle Delivery Systems and Uses Thereof” (The Texas A&M University System, priority 2020, published 2025)

Tests used:
Type in all cases: cell-based, human
[1] = test system: GFP-expressing A549 cells; test: siRNA-mediated GFP knockdown; conditions: lipid-siRNA complexes following electroporation, no EV
Experimental: Quantification of siRNA knockdown in A549 cells: To evaluate the knockdown efficiency of EV-mediated siRNA delivery within the constitutively expressing-GFP-A549 cells over time, GFP fluorescence was measured and quantified using a plate reader (Cytation 5) every day for 12 days (34). To ensure the decrease of green fluorescence intensity is due to the RNA interference of GFP-siRNA in the cells and not caused by the cytotoxicity of the delivery system, each sample type or condition was delivered with scrambled siRNA as a control. The knockdown efficiency was calculated using the below equation: […]
where Fsi is the fluorescence of the well using GFP-siRNA, Fsc is the fluorescence of the well using corresponding scrambled siRNA, Fbg is the fluorescence background of the media without cells, Fosi is the initial fluorescence of the well just prior to delivery for the GFP-siRNA formulations and Fosc is the initial fluorescence of the well prior to delivery of the corresponding scrambled siRNA control group. Commercial Lipofectamine® RNAiMax formulation was used as a positive control to compare the knockdown efficiency between samples. The formulation was prepared according to the manufacturer's instruction. Briefly, 0.3 μl of Lipofectamine® RNAiMax was used to deliver 1 pmol of siRNA. […] Area under the curve (knockdown efficiency vs time) was calculated to determine the difference in duration using GraphPad Prism 7 software.
siRNA knockdown efficiency: To evaluate the knockdown efficiency of LbL-EV mediated siRNA delivery within GFP-expressing A549 cells, GFP fluorescence was measured and quantified using the same apparatus (Cytation 5) every day as previously described (34, 63). The knockdown efficiency of siRNA-GFP was calculated by normalizing each sample type/condition to each individual negative control treated with scrambled siRNA. […] Area under the curve (knockdown efficiency vs time) was calculated by GraphPad Prism 7 software to determine the overall knockdown efficiency of each condition. […]

CCL-210 cells = test: DOX cancer killing efficiency (MTS assay); conditions: CCL210, 3 days incubation
Experimental: (§1) DOX cancer killing efficiency: The effects of DOX-loaded vesicles on A549/CCL210 cells were done by CellTiter 96® Aqueous Cell Proliferation assay (Promega) (MTS assay) to assess relative metabolic activity of the cells. Prior to MTS treatment, DOX-loaded vesicles were incubated with cultured A549/CCL210 cells at 60-70% confluency for 3 days at varying doses. The MTS assays were conducted after incubation for 3 days, following the manufacturer's instructions. Untreated A549 or CCL210 cells were used as positive control groups (assuming 100% metabolic activity) for normalization. Free DOX (unencapsulated) and DOX-loaded PLGA NPs were prepared as comparison groups. To obtain dose-response curves, metabolic activity was plotted versus the amount of DOX administered, which was determined based on spectrophotometric analysis of eEV/LbL-eEV/PLGA NPs. The sigmoidal dose-response curves were fitted with Hill's equation using GraphPad software: […]
(§2) where Max is the Y value at the top plateau and Min is the Y value at the bottom plateau. IC50 (inhibitory concentration, 50%) is the X value when the response is halfway between Min and Max.

A549 cells = test: DOX cancer killing efficiency (MTS assay); conditions: A549, 3 days incubation
Experimental: as §1, §2

## CCCCCCCC/C=C\CCCCCCCC(=O)O[C@H](COC(=O)CCCCCCCCCCCCCCC)COP(=O)(O)OCC(O)CO (some centres unmarked) [POPG, 1-Palmitoyl-2-oleoyl-sn-glycero-3-phosphoglycerol]
[1]
  GFP down-regulation by lipid-siRNA complexes: not able to down-regulate GFP expression

## CCCCCCCC/C=C\CCCCCCCC(=O)O[C@H](COC(=O)CCCCCCCCCCCCCCC)COP(=O)([O-])OCC[N+](C)(C)C [POPC, 1-Palmitoyl-2-oleoyl-sn-glycero-3-phosphocholine]
[1]
  GFP down-regulation by lipid-siRNA complexes: not able to down-regulate GFP expression

## CCCCCCCCCCCCCCCC(=O)OC[C@H](COP(=O)([O-])OCC[N+](C)(C)C)OC(=O)CCCCCCCCCCCCCCC [DPPC, 1,2-dipalmitoyl-sn-glycero-3-phosphocholine]
[1]
  GFP down-regulation by lipid-siRNA complexes: not able to down-regulate GFP expression

## COc1cccc2c1C(=O)c1c(O)c3c(c(O)c1C2=O)C[C@@](O)(C(=O)CO)C[C@@H]3O[C@H]1C[C@H](N)[C@H](O)[C@H](C)O1 [Free DOX, doxorubicin]
CCL-210 cells
  IC10 of DOX: 0.200 μ/ml
  IC50 of DOX: 0.400 ± 0.024 μ/ml
  IC90 of DOX: 0.780 μ/ml
A549 cells
  IC10 of DOX: 0.510 μ/ml
  IC90 of DOX: 0.690 μ/ml
